Results as given in patent US10526316B2, “Quinoxaline and pyridopyrazine derivatives as PI3Kβ inhibitors” (Janssen Pharmaceutica NV, priority 2015, dated 2020).
Read-outs that look alike come from different tables or passages of the source.

Assays:
PI3Kβ = molecular target: T1, PI3Kβ (Homo sapiens, UniProt P42338); experiment: Enzyme binding assay (KINOMEscan, DiscoveRx); conditions: PIK3Cβ_h, read-out: Kd PIK3Cβ_h
T1 construct: purchased DiscoveRx Corporation, San Diego (contract service, KINOMEscan)
T1 sequence (P42338 whole entry): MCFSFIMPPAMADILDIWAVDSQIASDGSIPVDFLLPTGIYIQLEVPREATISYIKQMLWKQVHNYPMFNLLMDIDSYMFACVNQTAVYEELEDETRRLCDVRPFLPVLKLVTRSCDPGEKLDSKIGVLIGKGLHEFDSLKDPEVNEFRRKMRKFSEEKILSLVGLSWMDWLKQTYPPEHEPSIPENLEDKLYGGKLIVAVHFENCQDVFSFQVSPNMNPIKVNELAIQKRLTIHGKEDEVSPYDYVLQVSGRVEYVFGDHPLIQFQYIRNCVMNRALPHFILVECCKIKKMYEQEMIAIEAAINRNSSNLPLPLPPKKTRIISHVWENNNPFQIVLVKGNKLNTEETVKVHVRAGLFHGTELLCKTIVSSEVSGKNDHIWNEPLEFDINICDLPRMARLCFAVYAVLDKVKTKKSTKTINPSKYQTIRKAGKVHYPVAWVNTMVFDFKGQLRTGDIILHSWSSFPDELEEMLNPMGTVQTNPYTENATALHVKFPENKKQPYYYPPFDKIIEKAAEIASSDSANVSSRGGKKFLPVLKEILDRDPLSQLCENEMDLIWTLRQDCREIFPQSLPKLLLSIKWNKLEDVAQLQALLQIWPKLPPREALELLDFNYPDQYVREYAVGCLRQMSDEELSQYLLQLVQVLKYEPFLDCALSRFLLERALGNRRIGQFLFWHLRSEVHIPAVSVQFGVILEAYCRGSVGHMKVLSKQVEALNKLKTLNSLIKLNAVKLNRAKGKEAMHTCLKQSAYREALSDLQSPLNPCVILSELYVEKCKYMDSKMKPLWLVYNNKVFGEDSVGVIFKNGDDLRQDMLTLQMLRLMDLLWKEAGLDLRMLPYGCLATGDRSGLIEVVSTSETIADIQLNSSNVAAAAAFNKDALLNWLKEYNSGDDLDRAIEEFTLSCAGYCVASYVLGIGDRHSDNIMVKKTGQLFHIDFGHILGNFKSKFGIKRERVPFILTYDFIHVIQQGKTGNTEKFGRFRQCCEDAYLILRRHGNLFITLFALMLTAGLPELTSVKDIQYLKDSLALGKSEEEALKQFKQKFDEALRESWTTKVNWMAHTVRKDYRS
In short: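 Compounds are profiled for binding to the kinase using KINOMEscan. The affinity is then reported as an inhibitor Kd in nanomolar units.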

PI3Kδ = molecular target: T2, PI3Kδ (Homo sapiens, UniProt O00329); experiment: Enzyme binding assay (KINOMEscan, DiscoveRx); conditions: PIK3Cδ_h
T2 construct: purchased DiscoveRx Corporation, San Diego (contract service, KINOMEscan)
T2 sequence (O00329 1-1044): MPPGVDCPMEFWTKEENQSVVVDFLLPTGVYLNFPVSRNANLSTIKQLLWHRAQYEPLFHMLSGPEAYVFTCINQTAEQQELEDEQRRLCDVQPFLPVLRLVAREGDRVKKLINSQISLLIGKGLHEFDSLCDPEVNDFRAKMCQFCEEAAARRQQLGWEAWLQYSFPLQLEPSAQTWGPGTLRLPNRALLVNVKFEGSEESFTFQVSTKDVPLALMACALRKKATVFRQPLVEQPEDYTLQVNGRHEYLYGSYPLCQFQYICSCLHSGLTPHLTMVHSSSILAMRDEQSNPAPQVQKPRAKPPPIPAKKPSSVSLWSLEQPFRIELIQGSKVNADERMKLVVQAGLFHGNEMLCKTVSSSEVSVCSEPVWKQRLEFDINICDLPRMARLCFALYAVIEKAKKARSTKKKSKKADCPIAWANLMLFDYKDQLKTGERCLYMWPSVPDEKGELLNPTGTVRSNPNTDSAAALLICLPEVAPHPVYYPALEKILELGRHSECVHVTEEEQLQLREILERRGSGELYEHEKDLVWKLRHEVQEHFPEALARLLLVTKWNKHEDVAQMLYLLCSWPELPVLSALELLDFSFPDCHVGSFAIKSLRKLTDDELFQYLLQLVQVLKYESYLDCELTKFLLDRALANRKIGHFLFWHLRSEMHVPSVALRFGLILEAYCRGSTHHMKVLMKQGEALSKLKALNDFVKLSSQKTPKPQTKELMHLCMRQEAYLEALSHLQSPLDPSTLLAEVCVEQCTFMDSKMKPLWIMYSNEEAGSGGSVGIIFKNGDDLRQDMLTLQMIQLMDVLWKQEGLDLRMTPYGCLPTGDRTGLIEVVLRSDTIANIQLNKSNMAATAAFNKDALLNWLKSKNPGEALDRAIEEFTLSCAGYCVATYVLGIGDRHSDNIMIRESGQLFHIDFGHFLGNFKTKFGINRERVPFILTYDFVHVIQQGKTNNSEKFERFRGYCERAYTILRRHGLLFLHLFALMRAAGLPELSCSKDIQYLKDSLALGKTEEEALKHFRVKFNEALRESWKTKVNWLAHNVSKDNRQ
In short: (§1)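 Compounds were profiled by KINOMEscan to obtain kinase binding affinities.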

kinase enzymes [1] = molecular target: T3, kinase enzymes (Homo sapiens, UniProt P42336); experiment: Enzyme binding assay (KINOMEscan, DiscoveRx), further kinases of Table A; conditions: PIK3Cα_h
T3 construct: purchased DiscoveRx Corporation, San Diego (contract service, KINOMEscan)
T3 sequence (P42336 whole entry): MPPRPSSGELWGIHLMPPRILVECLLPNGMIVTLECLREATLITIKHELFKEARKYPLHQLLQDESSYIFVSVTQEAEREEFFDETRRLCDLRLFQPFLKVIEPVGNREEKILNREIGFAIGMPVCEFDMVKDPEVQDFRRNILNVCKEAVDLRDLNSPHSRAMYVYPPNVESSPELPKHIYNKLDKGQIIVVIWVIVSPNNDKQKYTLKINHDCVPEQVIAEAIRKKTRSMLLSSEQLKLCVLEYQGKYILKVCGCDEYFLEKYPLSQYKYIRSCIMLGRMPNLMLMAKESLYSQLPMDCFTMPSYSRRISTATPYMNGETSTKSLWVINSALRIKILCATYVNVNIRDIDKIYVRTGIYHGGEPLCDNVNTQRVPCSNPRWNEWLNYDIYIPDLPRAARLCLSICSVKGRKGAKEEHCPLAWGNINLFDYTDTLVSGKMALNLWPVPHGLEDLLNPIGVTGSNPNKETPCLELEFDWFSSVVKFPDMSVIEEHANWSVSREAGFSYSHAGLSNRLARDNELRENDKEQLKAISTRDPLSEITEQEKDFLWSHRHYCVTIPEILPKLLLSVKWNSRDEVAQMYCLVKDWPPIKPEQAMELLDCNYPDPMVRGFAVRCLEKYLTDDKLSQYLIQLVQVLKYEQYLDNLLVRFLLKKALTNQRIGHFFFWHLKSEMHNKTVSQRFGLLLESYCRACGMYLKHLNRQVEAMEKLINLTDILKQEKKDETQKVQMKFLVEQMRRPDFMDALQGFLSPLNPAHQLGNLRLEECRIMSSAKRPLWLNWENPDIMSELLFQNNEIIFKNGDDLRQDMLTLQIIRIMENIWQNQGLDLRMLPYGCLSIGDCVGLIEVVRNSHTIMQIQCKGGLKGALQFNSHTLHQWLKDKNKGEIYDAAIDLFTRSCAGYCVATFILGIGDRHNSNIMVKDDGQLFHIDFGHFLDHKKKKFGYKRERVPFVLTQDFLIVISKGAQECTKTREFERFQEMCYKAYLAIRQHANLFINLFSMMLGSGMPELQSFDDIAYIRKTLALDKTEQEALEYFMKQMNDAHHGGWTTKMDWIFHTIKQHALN
In short: as §1

kinase enzymes [2] = molecular target: T4, kinase enzymes (Homo sapiens, UniProt P42345); experiment: as above; conditions: MTOR_h
T4 construct: purchased DiscoveRx Corporation, San Diego (contract service, KINOMEscan)
In short: as §1

kinase enzymes [3] = molecular target: T5, kinase enzymes (Homo sapiens, UniProt P48736); experiment: as above; conditions: PIK3Cγ_h
T5 construct: purchased DiscoveRx Corporation, San Diego (contract service, KINOMEscan)
T5 sequence (P48736 whole entry): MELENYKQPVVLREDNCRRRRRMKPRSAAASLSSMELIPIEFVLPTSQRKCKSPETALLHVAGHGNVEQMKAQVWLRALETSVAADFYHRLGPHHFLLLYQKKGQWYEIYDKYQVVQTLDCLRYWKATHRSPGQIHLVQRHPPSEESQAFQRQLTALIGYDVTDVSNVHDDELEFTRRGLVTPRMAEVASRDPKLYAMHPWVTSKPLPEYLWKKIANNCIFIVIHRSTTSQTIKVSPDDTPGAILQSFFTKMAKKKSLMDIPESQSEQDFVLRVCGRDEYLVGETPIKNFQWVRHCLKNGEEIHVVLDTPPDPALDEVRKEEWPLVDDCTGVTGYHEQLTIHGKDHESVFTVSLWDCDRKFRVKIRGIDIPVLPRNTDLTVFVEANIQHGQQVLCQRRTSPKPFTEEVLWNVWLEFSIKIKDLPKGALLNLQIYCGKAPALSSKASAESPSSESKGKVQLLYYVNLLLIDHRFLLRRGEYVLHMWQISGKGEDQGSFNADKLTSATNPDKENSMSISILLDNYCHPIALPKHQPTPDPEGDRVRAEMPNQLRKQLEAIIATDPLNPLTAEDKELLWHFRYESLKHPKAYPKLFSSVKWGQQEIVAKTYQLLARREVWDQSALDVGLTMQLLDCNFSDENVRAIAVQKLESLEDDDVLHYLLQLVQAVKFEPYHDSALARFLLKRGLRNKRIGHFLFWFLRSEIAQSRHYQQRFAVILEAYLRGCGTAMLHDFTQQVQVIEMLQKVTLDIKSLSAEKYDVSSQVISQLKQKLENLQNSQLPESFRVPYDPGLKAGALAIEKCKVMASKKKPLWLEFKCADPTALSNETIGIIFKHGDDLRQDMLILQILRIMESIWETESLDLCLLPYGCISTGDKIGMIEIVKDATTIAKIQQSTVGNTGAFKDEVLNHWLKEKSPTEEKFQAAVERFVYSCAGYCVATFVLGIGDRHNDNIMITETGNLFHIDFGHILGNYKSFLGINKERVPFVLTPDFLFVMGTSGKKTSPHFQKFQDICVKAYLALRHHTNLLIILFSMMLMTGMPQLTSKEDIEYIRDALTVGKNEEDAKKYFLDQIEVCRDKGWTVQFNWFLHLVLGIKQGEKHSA
In short: as §1

[4] = test system: Akt phosphorylated at Ser473 in PC-3 cells; experiment: Cellular assay: phosphorylation of Akt at Ser473 in PC-3 cells (MSD ELISA); format: cell-based; conditions: PC-3 cells, 60 min compound incubation, MSD ELISA, read-out: IC50 pAkt_S473
In short: (§2)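 Compound treatment of PC-3 cells lasted 60 min at 37° C (0.3% DMSO). Lysates were then applied to plates carrying capture antibodies for the relevant phospho-site, and bound Akt was detected with an electrochemiluminescent anti-total Akt antibody; IC50s derive from five-point curves.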

[5] = test system: Akt phosphorylated at Thr308 in PC-3 cells; experiment: Cellular assay: phosphorylation of Akt at Thr308 in PC-3 cells (MSD ELISA); format: cell-based; conditions: PC-3 cells, 60 min compound incubation, MSD ELISA, read-out: IC50 pAkt_Thr308
In short: as §2

Kd (PI3Kβ) [nM] | Kd (PI3Kδ) [nM] | Kd (kinase enzymes [1]) [nM] | Kd (kinase enzymes [2]) [µM] | Kd (kinase enzymes [3]) [µM] | IC50 [4] [nM] | IC50 [5] [nM] | melting point [°C] | IC50 ([4]; Homo sapiens, PC-3, 1 h) [nM] | IC50 ([5]; Homo sapiens, PC-3, 1 h) [nM] | Structure (SMILES)
0.1 | 9 | 138 | > 30.2 | 0.501 | 1 | 1 | 80 |  |  | CNCCN(C)C(=O)c1cc(C(C)Nc2cc(F)cc(F)c2)c2nc(N3CCOCC3)cnc2c1 (single isomer, unassigned) [Compound 137]
1 | 204 | 105 | > 30.2 | 5.01 | 6 | 4 | 120 |  |  | CC(Nc1cc(F)cc(F)c1)c1cc(C(=O)N2CCNC(C(F)(F)F)C2)cc2ncc(N3CCOCC3)nc12 (single isomer, unassigned) [Compound 237a]
2290 | 25700 | 11000 | 15.8 | 6.61 | > 513 | > 513 | 196 |  |  | CC(Nc1cccc(F)c1)c1cc(C(=O)NCC(=O)O)cc2ncc(N3CCOCC3)nc12 (single isomer, unassigned) [Compound 393b]
20 | 2880 | 6170 | > 30.2 | > 30.2 | 200 | 126 | 276 |  |  | O=C(c1cc(C2CCCN2c2cc(F)cc(F)c2)c2nc(N3CCOCC3)cnc2c1)N1CCC1 (single isomer, unassigned) [Compound 37]
1 | 158 | 933 | > 30.2 | 8.13 |  |  | 120 | 30 | 14 | CC1CN(C(=O)c2cc(C(C)Nc3ccc(F)c(F)c3)c3nc(N4CCOCC4)cnc3c2)CC(C)N1 (centres unmarked) [Compound 357b]
1 | 182 | 3800 | > 30.2 | 3.09 | 209 | 100 | 130 |  |  | CC(Nc1ccc(F)c(F)c1)c1cc(C(=O)N(C)C2CCNC2)cc2ncc(N3CCOCC3)nc12 (centres unmarked) [Compound 323b]
8 | 1170 | 5370 | 16.2 | 2.69 |  |  | 90 | 316 | 316 | CC(Nc1cc(F)cc(F)c1)c1cncc2ncc(N3CCOCC3)nc12 (centres unmarked) [Compound 153]
13 | 2880 | 4790 | 13.2 | 20.9 |  |  | 80 | > 513 | 437 | CN(C(=O)c1cc(NCc2cc(F)cc(F)c2)c2nc(N3CCOCC3)cnc2c1)[C@@H]1CCNC1 [Compound 355]
2 | 182 | 513 | > 30.2 | 4.47 |  |  | 110 | 20 | 17 | CC(Nc1cccc(F)c1)c1cc(C(=O)N2CCC[C@H](O)C2)cc2ncc(N3CCOCC3)nc12 (single isomer, unassigned) [Compound 320a]
2 | 490 | 2240 | > 30.2 | 11.7 |  |  | 80 | 105 | 81 | CC(Nc1cccc(Cl)c1)c1cc(C(=O)N2CCOCC2)cc2ncc(N3CCOCC3)nc12 (centres unmarked) [Compound 119]
47 | 955 | 479 | 2.24 | 0.437 |  |  | 240 | > 513 | > 513 | CC(c1cc(C(=O)O)cc2ncc(N3CCOCC3)nc12)N(C)c1cccc(F)c1 (centres unmarked) [Compound 98]
2 | 151 | 162 | > 30.2 | 1.91 |  |  | 80 | ~39 | ~26.9 | Cc1cc(F)cc(N2CCCC2c2cc(C(=O)N(C)C)cc3ncc(N4CCOCC4)nc23)c1 (centres unmarked) [Compound 35]
1 | 39 | 55 | > 30.2 | 0.339 |  |  | 80 | 3 | 3 | CON(C)C(=O)c1cc(C2CCCN2c2cc(F)cc(F)c2)c2nc(N3CCOCC3)cnc2c1 (centres unmarked) [Compound 51]
214 | > 30200 | 19100 | > 30.2 | > 30.2 |  |  | 146 | > 513 | > 513 | COC(=O)c1cc(C(C)N(C)c2cccc(F)c2)c2nc(N3CCOCC3)cnc2c1 (centres unmarked) [Compound 97]
0.2 | 17 | 56 | 20.4 | 0.204 |  |  | 80 | 2 | 1 | CNCCNC(=O)c1cc(C2CCCN2c2cc(F)cc(F)c2)c2nc(N3CCOCC3)cnc2c1 (centres unmarked) [Compound 72]
37 | 4680 | 12300 | > 30.2 | 12.9 | > 513 | > 513 | 98 |  |  | Fc1cc(F)cc(N2CCCC2c2cncc3ncc(N4CCOCC4)nc23)c1 (single isomer, unassigned) [Compound 25]
550 | 12300 | 1860 | 11.5 | > 30.2 |  |  | 80 | > 513 | > 513 | C[C@H](Nc1cc(C(=O)N(C)C)cc2ncc(N3CCOCC3)nc12)c1ccc(F)cc1 [Compound 401]
1 | 16 | 93 | 17 | 0.126 |  |  | 80 | ~5 | 2 | CC(O)c1cc(C2CCCN2c2cc(F)cc(F)c2)c2nc(N3CCOCC3)cnc2c1 (centres unmarked) [Compound 16]
87 | 6310 | > 30200 | > 30.2 | > 30.2 |  |  | 80 | > 513 | > 513 | COc1cc(NC(C)c2cc(C(=O)N3CCOCC3)cc3ncc(N4CCOCC4)nc23)cc(OC)c1 (centres unmarked) [Compound 134]
13 | 1290 | 6920 | > 30.2 | > 30.2 |  |  | 80 | 427 | 275 | Cc1cc(C)cc(NC(C)c2cc(C(=O)N3CCOCC3)cc3ncc(N4CCOCC4)nc23)c1 (centres unmarked) [Compound 126]
1 | 219 | 339 | 14.5 | 0.955 |  |  | 120 | 5 | 6 | O=Cc1cc(C2CCCN2c2cc(F)cc(F)c2)c2nc(N3CCOCC3)cnc2c1 (centres unmarked) [Compound 250]
0.3 | 107 | 1230 | > 30.2 | 2.63 | 107 | 40 | 128 |  |  | CN[C@H]1CCN(C(=O)c2cc(C(C)Oc3ccc(F)c(F)c3)c3nc(N4CCOCC4)cnc3c2)C1 (single isomer, unassigned) [Compound 370a]
